US10308659B2, “Pyridine derivatives” (Hoffmann-La Roche Inc., priority 2013, dated 2019)
Where two headings read alike, the source gives them in different places.

Legend:
human CB1 receptors = human CB1 receptors (Homo sapiens (Human), UniProt P21554); assay: cAMP assay, CHO cells expressing human CB1 receptors; format: cell-based
Protocol: (§1) CHO cells expressing human CB1 or CB2 receptors are seeded 17-24 hours prior to the experiment 50.000 cells per well in a black 96 well plate with flat clear bottom (Corning Costar #3904) in DMEM (Invitrogen No. 31331), 1×HT supplement, with 10% fetal calf serum and incubated at 5% CO2 and 37° C. in a humidified incubator. The growth medium was exchanged with Krebs Ringer Bicarbonate buffer with 1 mM IBMX and incubated at 30° C. for 30 min. Compounds were added to a final assay volume of 100 μl and incubated for 30 min at 30° C. […] The time-resolved energy transfer is measured by a TRF reader (Evotec Technologies GmbH), equipped with a ND:YAG laser as excitation source. The plate is measured twice with the excitation at 355 nm and at the emission with a delay of 100 ns and a gate of 100 ns, total exposure time 10 s at 730 (bandwidth30 nm) or 645 nm (bandwidth 75 nm), respectively. The FRET signal is calculated as follows: FRET=T730-Alexa730-P(T645-B645) with P=Ru730-B730/Ru645-B645, where T730 is the test well measured at 730 nM, T645 is the test well measured at 645 nm, B730 and B645 are the buffer controls at 730 nm and 645 nm, respectively. cAMP content is determined from the function of a standard curve spanning from 10 μM to 0.13 nM cAMP.
(§2) EC50 values were determined using Activity Base analysis (ID Business Solution, Limited).

human CB2 receptors = human CB2 receptors (Homo sapiens (Human), UniProt P34972); assay: cAMP assay, CHO cells expressing human CB2 receptors; format: cell-based
human CB2 receptors, sequence (P34972 whole entry): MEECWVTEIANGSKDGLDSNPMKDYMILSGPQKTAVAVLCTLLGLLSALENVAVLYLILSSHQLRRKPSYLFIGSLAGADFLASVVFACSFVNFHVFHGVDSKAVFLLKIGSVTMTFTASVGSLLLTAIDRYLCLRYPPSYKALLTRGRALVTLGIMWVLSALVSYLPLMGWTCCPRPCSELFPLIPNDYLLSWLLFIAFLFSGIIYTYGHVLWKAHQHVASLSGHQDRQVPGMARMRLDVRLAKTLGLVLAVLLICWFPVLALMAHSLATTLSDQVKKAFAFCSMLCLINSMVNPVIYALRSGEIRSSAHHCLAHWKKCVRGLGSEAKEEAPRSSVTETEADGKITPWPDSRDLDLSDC
Protocol: as §1, §2

[1] = functional cAMP assay, CHO cells expressing human CB1, read-out: EC50 CB1 human
[2] = functional cAMP assay, CHO cells expressing human CB2, read-out: EC50 CB2 human

human CB1 receptors, sequence (P21554 whole entry): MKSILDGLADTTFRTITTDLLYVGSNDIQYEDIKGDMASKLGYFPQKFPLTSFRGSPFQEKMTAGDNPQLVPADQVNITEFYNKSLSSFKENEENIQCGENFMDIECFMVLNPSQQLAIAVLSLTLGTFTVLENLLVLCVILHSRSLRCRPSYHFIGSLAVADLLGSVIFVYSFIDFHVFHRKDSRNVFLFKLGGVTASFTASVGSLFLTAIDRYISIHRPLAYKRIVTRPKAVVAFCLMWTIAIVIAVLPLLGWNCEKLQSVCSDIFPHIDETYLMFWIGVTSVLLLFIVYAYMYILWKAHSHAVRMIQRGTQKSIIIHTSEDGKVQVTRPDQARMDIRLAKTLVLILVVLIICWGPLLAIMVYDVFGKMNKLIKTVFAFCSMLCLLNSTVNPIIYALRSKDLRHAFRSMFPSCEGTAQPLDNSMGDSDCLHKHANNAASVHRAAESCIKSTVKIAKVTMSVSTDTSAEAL

Compound | EC50 (human CB1 receptors; [1]) | EC50 (human CB2 receptors; [2]) | EC50 (human CB1 receptors) | EC50 (human CB2 receptors)
COC1CN(c2cc(-c3noc(C(C)(C)C)n3)ncc2C2CC2)C1 [Example 81, 5-tert-butyl-3-[5-cyclopropyl-4-(3-methoxyazetidin-1-yl)pyridin-2-yl]-1,2,4-oxadiazole] | > 10000 nM | 21.1 nM | – | –
CCC1(CC)COC(c2cc(OCC(F)(F)F)c(N3CC(F)(F)C3)cn2)=N1 [Example 30, 2-[5-(3,3-difluoroazetidin-1-yl)-4-(2,2,2-trifluoroethoxy)pyridin-2-yl]-4,4-diethyl-5H-1,3-oxazole] | > 10000 nM | 2.6 nM | – | –
CC(C)(C)c1nnc(-c2cc(OC3CCOCC3)c(C3CC3)cn2)o1 [Example 98, 2-tert-butyl-5-[5-cyclopropyl-4-(oxan-4-yloxy)pyridin-2-yl]-1,3,4-oxadiazole] | > 10000 nM | 42 nM | – | –
CC(C)(C)c1nc(-c2cc(OCC3(F)COC3)c(C3CC3)cn2)no1 [Example 105, 5-tert-butyl-3-[5-cyclopropyl-4-[(3-fluorooxetan-3-yl)methoxy]pyridin-2-yl]-1,2,4-oxadiazole] | > 10000 nM | 29.1 nM | – | –
CC(C)(C)c1nc(-c2cc(S(=O)(=O)C3CC3)c(C3CC3)cn2)no1 [Example 80, 5-tert-butyl-3-(5-cyclopropyl-4-cyclopropylsulfonylpyridin-2-yl)-1,2,4-oxadiazole] | > 10000 nM | 47.5 nM | – | –
CC(C)(C)c1nc(-c2cc(Oc3cccc(S(C)(=O)=O)c3)c(C3CC3)cn2)no1 [Example 108, 5-tert-butyl-3-[5-cyclopropyl-4-(3-methylsulfonylphenoxy)pyridin-2-yl]-1,2,4-oxadiazole] | > 10000 nM | 69.8 nM | – | –
CC(C)(C)c1nc(-c2cc(OC3CCOCC3)c(C3CC3)c(Cl)n2)no1 [Example 114, 5-tert-butyl-3-[6-chloro-5-cyclopropyl-4-(oxan-4-yloxy)pyridin-2-yl]-1,2,4-oxadiazole] | 455 nM | 3.7 nM | – | –
C[C@@H](Oc1cc(-c2nc(C(C)(C)C)no2)ncc1C1CC1)C(F)(F)F [Example 51, 3-tert-butyl-5-[5-cyclopropyl-4-[(2R)-1,1,1-trifluoropropan-2-yl]oxypyridin-2-yl]-1,2,4-oxadiazole] | > 10000 nM | 61.8 nM | – | –
CCC1(CC)COC(c2cc(OCC(F)(F)F)c(C3CC3)cn2)=N1 [Example 27, 2-[5-cyclopropyl-4-(2,2,2-trifluoroethoxy)pyridin-2-yl]-4,4-diethyl-5H-1,3-oxazole] | > 10000 nM | 3.5 nM | – | –
CC(C)c1noc(-c2cc(OCC(F)(F)F)c(C3CC3)cn2)n1 [Example 42, 5-[5-cyclopropyl-4-(2,2,2-trifluoroethoxy)pyridin-2-yl]-3-propan-2-yl-1,2,4-oxadiazole] | > 10000 nM | 2.3 nM | – | –
CC(C)(C)c1nc(-c2cc(OCC3CC3)c(N3CCC34COC4)cn2)no1 [Example 35, 1-[6-(5-tert-butyl-1,2,4-oxadiazol-3-yl)-4-(cyclopropylmethoxy)pyridin-3-yl]-6-oxa-1-azaspiro[3.3]heptane] | > 10000 nM | 32.8 nM | – | –
CC(C)(C)c1nc(-c2cc(N3CCC(F)(F)C3)c(C3CC3)cn2)no1 [Example 77, 5-tert-butyl-3-[5-cyclopropyl-4-(3,3-difluoropyrrolidin-1-yl)pyridin-2-yl]-1,2,4-oxadiazole] | > 10000 nM | 2.1 nM | – | –
CC(C)(C)c1nc(-c2cc(OCC3CC3)c(S(C)(=O)=O)cn2)no1 [Example 43, 5-tert-butyl-3-[4-(cyclopropylmethoxy)-5-methylsulfonylpyridin-2-yl]-1,2,4-oxadiazole] | > 10000 nM | 40.9 nM | – | –
CCc1nc(-c2cc(OCC3CC3)c(C3CC3)cn2)no1 [Example 13, 3-[5-cyclopropyl-4-(cyclopropylmethoxy)pyridin-2-yl]-5-ethyl-1,2,4-oxadiazole] | > 10000 nM | 31.9 nM | – | –
CC(C)(C)c1noc(-c2cc(OC3CCOCC3)c(C3CC3)cn2)n1 [Example 121, 3-tert-butyl-5-(5-cyclopropyl-4-(tetrahydro-2H-pyran-4-yloxy)pyridin-2-yl)-1,2,4-oxadiazole] | > 10000 nM | 1 nM | – | –
CC(C)(C)c1nc(-c2cc(OCC(F)(F)F)c(S(C)(=O)=O)cn2)no1 [Example 67, 5-tert-butyl-3-[5-methylsulfonyl-4-(2,2,2-trifluoroethoxy)pyridin-2-yl]-1,2,4-oxadiazole] | > 10000 nM | 434 nM | – | –
c1c(-c2nc(C3CCCC3)no2)ncc(C2CC2)c1OCC1CC1 [Example 4, 3-cyclopentyl-5-[5-cyclopropyl-4-(cyclopropylmethoxy)pyridin-2-yl]-1,2,4-oxadiazole] | > 10000 nM | 2.1 nM | – | –

Compound | EC50 (human CB1 receptors; [1]) | EC50 (human CB2 receptors; [2]) | EC50 (human CB1 receptors) | EC50 (human CB2 receptors)
CC(C)(C)c1nc(-c2cc(OCC(F)(F)F)c(C3CC3)cn2)no1 [Example 33, 5-tert-butyl-3-[5-cyclopropyl-4-(2,2,2-trifluoroethoxy)pyridin-2-yl]-1,2,4-oxadiazole] | – | – | > 10000 nM | 6.9 nM
OCc1nc(-c2cc(OCC3CC3)c(C3CC3)cn2)no1 [Example 18, [3-[5-cyclopropyl-4-(cyclopropylmethoxy)pyridin-2-yl]-1,2,4-oxadiazol-5-yl]methanol] | > 10000 nM | 110 nM | – | –
C[C@H](Oc1cc(-c2noc(C3CC3)n2)ncc1C1CC1)C(F)(F)F [Example 91, 5-cyclopropyl-3-[5-cyclopropyl-4-[(2S)-1,1,1-trifluoropropan-2-yl]oxypyridin-2-yl]-1,2,4-oxadiazole] | > 10000 nM | 641 nM | – | –
FC(F)(F)COc1cc(-c2ncon2)ncc1C1CC1 [Example 39, 3-[5-cyclopropyl-4-(2,2,2-trifluoroethoxy)pyridin-2-yl]-1,2,4-oxadiazole] | > 10000 nM | 434 nM | – | –
CC(C)(C)c1nc(-c2cc(N3CCC(O)C3)c(C3CC3)cn2)no1 (stereo not drawn) [Example 73, 1-[2-(5-tert-butyl-1,2,4-oxadiazol-3-yl)-5-cyclopropylpyridin-4-yl]pyrrolidin-3-ol] | > 10000 nM | 57.2 nM | – | –
Cc1nc(COc2cc(-c3noc(C(C)(C)C)n3)ncc2C2CC2)c(C)o1 [Example 106, 5-tert-butyl-3-[5-cyclopropyl-4-[(2,5-dimethyl-1,3-oxazol-4-yl)methoxy]pyridin-2-yl]-1,2,4-oxadiazole] | > 10000 nM | 128 nM | – | –
CC(C)(C)c1nc(-c2cc(OCC3CC3)c(N3CC(F)(F)C3)cn2)no1 [Example 32, 5-tert-butyl-3-[4-(cyclopropylmethoxy)-5-(3,3-difluoroazetidin-1-yl)pyridin-2-yl]-1,2,4-oxadiazole] | > 10000 nM | 8.6 nM | – | –
OC1(c2nc(-c3cc(OCC(F)(F)F)c(N4CC(F)(F)C4)cn3)no2)CC1 [Example 46, 1-[3-[5-(3,3-difluoroazetidin-1-yl)-4-(2,2,2-trifluoroethoxy)pyridin-2-yl]-1,2,4-oxadiazol-5-yl]cyclopropan-1-ol] | > 10000 nM | 180 nM | – | –
CCC(COC)Oc1cc(-c2noc(C(C)(C)C)n2)ncc1C1CC1 (stereo not drawn) [Example 84, 5-tert-butyl-3-[5-cyclopropyl-4-(1-methoxybutan-2-yloxy)pyridin-2-yl]-1,2,4-oxadiazole] | > 10000 nM | 50.1 nM | – | –
CCC1COC(c2cc(OCC3CC3)c(C3CC3)cn2)=N1 (stereo not drawn) [Example 21, 2-[5-cyclopropyl-4-(cyclopropylmethoxy)pyridin-2-yl]-4-ethyl-4,5-dihydro-1,3-oxazole] | > 10000 nM | 70 nM | – | –
Cc1nc(C2(C)COC(c3cc(OCC(F)(F)F)c(C4CC4)cn3)=N2)no1 (stereo not drawn) [Example 111, 3-[2-[5-cyclopropyl-4-(2,2,2-trifluoroethoxy)pyridin-2-yl]-4-methyl-5H-1,3-oxazol-4-yl]-5-methyl-1,2,4-oxadiazole] | > 10000 nM | 57.6 nM | – | –
CC(C)c1nc(-c2cc(OCC3CC3)c(C3CC3)cn2)no1 [Example 14, 3-[5-cyclopropyl-4-(cyclopropylmethoxy)pyridin-2-yl]-5-propan-2-yl-1,2,4-oxadiazole] | > 10000 nM | 3.7 nM | – | –
CCN1CCCC(Oc2cc(-c3noc(C(C)(C)C)n3)ncc2C2CC2)C1 (stereo not drawn) [Example 100, 5-tert-butyl-3-[5-cyclopropyl-4-(1-ethylpiperidin-3-yl)oxypyridin-2-yl]-1,2,4-oxadiazole] | > 10000 nM | 518 nM | – | –
CC(C)(C)c1c[nH]c(-c2cc(OCC(F)(F)F)c(N3CC(F)(F)C3)cn2)n1 [Example 64, 2-(5-tert-butyl-1H-imidazol-2-yl)-5-(3,3-difluoroazetidin-1-yl)-4-(2,2,2-trifluoroethoxy)pyridine] | > 10000 nM | 87.5 nM | – | –
CC(C)(C)c1nc(-c2cc(OC3CCCNC3)c(C3CC3)cn2)no1 (stereo not drawn) [Example 104, 5-tert-butyl-3-(5-cyclopropyl-4-piperidin-3-yloxypyridin-2-yl)-1,2,4-oxadiazole] | > 10000 nM | 69.8 nM | – | –
c1c(-c2noc(C3CC3)n2)ncc(C2CC2)c1OCC1CC1 [Example 9, 5-cyclopropyl-3-[5-cyclopropyl-4-(cyclopropylmethoxy)pyridin-2-yl]-1,2,4-oxadiazole] | – | – | > 10000 nM | 15.8 nM
